# In paper PMC8533149 (Biomolecules, 2021):
# Read-outs that look alike come from different tables or passages of the source.
# Assays:
# [1] = tested on: HIV-1 LTR-III G-quadruplex (FAM/TAMRA-labeled LTR-III); assay: FRET melting assay, LTR-III G4; type: binding; conditions: for LTR-III (average): Table S12, average stabilization; for LTR III stabilization: Figure 7, stabilization group
# How it was run: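 Melting is followed by FAM fluorescence (ex 495/em 520 nm) while heating at 1 °C/min from 30 to 95 °C. Labelled ODN at 0.5 μM, pre-annealed in 10 mM Li cacodylate, 100 mM KCl, pH 7.4, mixed with ligand at 50:1 (25 μM), or 20:1 and 2:1 for titration. ΔTm is relative to the 0.25% DMSO buffer control.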
# Cytotoxicity test = type: cell-based; conditions: human, Figure 7
# Protocol: (§1) Green monkey kidney (Vero, Beach, FL, USA) cell line was maintained in 2 × Eagle MEM (“Chumakov FSC R&D IBP RAS”, Russia) with 5% FBS with L-glutamine, penicillin and streptomycin. […] HIV-1 strain NL4-3 was obtained via cell transfection with pNL4-3 3 (ARP2006, NIBSC, Potters Bar, UK).
# (§2) MT4 cell suspensions were added to the wells with compound dilutions and DMSO control (approx. 2 × 10^4 cells per well). […] All experimental procedures were performed in two replicates and were repeated two to four times. Mean and SD were calculated with OriginPro 8 (OriginLab, St. Louis, MO, USA).
# MT4 cells = assay: Cytotoxicity test; type: cell-based; conditions: Table S12, nine days
# Protocol: as §1, §2
# [2] = tested on: human telomeric sequence Telo G4; assay: FRET melting assay, Telo; type: binding; conditions: 50:1
# Protocol: (§3) To evaluate stabilizing properties of the ligands in a complex with oligodeoxyribonucleotides (ODNs) melting with fluorescence registration was used. ODN (0.5 μM) (Table 1), labeled with 6-carboxyfluorescein (FAM) and 6-carboxytetramethylrhodamine (TAMRA) at the 5′- and 3′-end, respectively, were folded in lithium cacodylate buffer (10 mM, pH 7.4) with 100 mM KCl by heating at 95 °C for 5 min and gradually cooling to r.t. GFP chromophore analogs (5 mM solution in DMSO) were diluted with the same buffer to the final concentration of 25 μM and mixed with an equal volume of 0.5 μM ODN solution resulting in a molar ratio of 50:1 (total volume was 50 μL). For the titration experiments molar ratios of 20:1 and 2:1 were used. Samples were analyzed using DTprime qPCR system (DNA-Technology LLC, Moscow, Russia). Fluorescence was registered by detection of FAM emission at 520 nm upon excitation at 495 nm in the temperature range of 30–95 °C with 1 °C/min gradient. Tm was determined using the instrument software and ΔTm was calculated relative to ODN Tm in a buffer solution containing 0.25% (v/v) DMSO. The primary and secondary screening were carried out in singlicate and triplicate, respectively.
# (§4) Initially we screened an in-house library of 440 synthetic GFP chromophore analogues for interaction with HIV-1 LTR-III sequence, which modulates HIV-1 promoter activity, using high-throughput screening (HTS) FRET melting assay (Table S1). […] We selected 11 compounds (Figure 2A), displaying stabilization in the range of 2.4–7.8 °C, and evaluated their ability to stabilize other G4-forming sequences, including human telomeric sequence Telo (one of the most common G4 structures in the human genome, having two conformations, Hybrid-1 and Hybrid-2 [36]) and model G4 […] (the G-rich Pu39 region of the P1 promoter of the oncogene BCL-2, an apoptosis regulator [37] with polymorphic conformational structure), as well as double stranded oligonucleotide (duplex) control sequence (Figure 2B, Table S2).
# [3] = tested on: Pu39 G4 (G-rich region of the P1 promoter of BCL-2); assay: FRET melting assay, Pu39; type: binding, human; conditions: 50:1
# Protocol: as §3, §4
# [4] = tested on: dsDNA (double stranded control sequence); assay: FRET melting assay, duplex control; type: binding; conditions: 50:1
# Protocol: as §3, §4
# [5] = tested on: HIV-1 strain NL4-3 in MT4 cells; assay: Cytopathic effect inhibition test; type: cell-based; conditions: HIV-1 NL4-3, MT4 cells
# Protocol: Human T cell leukemia (MT4) cell line was maintained in RPMI-1640 (“Chumakov FSC R&D IBP RAS”, Moscow, Russia) with 10% of fetal bovine serum (FBS, Invitrogen, Waltham, MA, USA), L-glutamine and gentamicin. Green monkey kidney (Vero, Beach, FL, USA) cell line was maintained in 2 × Eagle MEM (“Chumakov FSC R&D IBP RAS”, Russia) with 5% FBS with L-glutamine, penicillin and streptomycin. Cell cultures were incubated in the present of 5% CO2 at 37 °C. HIV-1 strain NL4-3 was obtained via cell transfection with pNL4-3 3 (ARP2006, NIBSC, Potters Bar, UK).
# Eight two-fold dilutions of stock solutions of the compounds in two replicates were prepared in RPMI-1640 (“Chumakov FSC R&D IBP RAS”, Russia). Compound dilutions were mixed with equal volumes of the virus suspension containing 100 CCID50 (50% tissue culture infectious dose). Control cells were treated with the same sequential concentrations of DMSO as in compound dilutions. Then, the MT4 cell suspension (approx. 2 × 10^4 cells per well) in RPMI-1640 containing 10% FBS (Invitrogen, South America) was added to experimental mixtures. A final concentration series started from 25 μM. Each experiment contained virus dose titration in the inoculate to assure the acceptable dose-range. After a nine-day incubation (5% CO2, at 37 °C), cytopathic effect (CPE) was visually accessed via microscope. EC50 values were calculated according to the Karber method. All experimental procedures were performed in two replicates and were repeated two to four times. Mean and SD were calculated with OriginPro 8 (OriginLab, St. Louis, MO, USA).
# [6] = Table S1 primary screening, ligand:ODN 50:1, singlicate
# [7] = Table S2, primary screening lead compounds
# [8] = MT4 cells (human T cell leukemia)
# [9] = Human immunodeficiency virus 1, NL43, 216 h, Table S12, CPE, nine-day incubation, read-out: EC50
# [10] = Human immunodeficiency virus 1, NL43, Figure 7, read-out: Antiviral activity EC50 (HIV)
# [11] = LTR-III G4/ligand molar ratio 1:20
# [12] = LTR-III G4/ligand molar ratio 1:50
# [13] = Table S3 primary screening of newly synthesized analogs, 50:1
# [14] = Table S5, newly synthesized compounds
SMILES,LTR-III (average) [1],CC50 at 9 days (Cytotoxicity test; MT4 cells) [µM],СС50 (MT4) (MT4 cells) [µM],"LTR-III ΔTm [1, 6] [°C]","ΔTm Telo [2, 7] [°C]","ΔTm Pu39 [3, 7] [°C]","ΔTm Duplex [4, 7] [°C]",CC50 at 9 days (Cytotoxicity test; [8]) [µM],LTR III stabilization [1] [°C],"EC50 [5, 9] [µM]","EC50 [5, 10] [µM]","ΔTm, titration ([1]; LTR-III G4/ligand molar ratio 1:2) [°C]","ΔTm, titration [1, 11] [°C]","ΔTm, titration [1, 12] [°C]","LTR-III ΔTm [1, 13] [°C]","ΔTm Telo [2, 14] [°C]","ΔTm Pu39 [3, 14] [°C]","ΔTm Duplex [4, 14] [°C]","EC50 ([5]; Table S12, CPE, nine-day incubation)","ΔTm LTR III ([1]; Table S2, primary screening lead compounds, 50:1) [°C]"
COc1cc(/C=C2N=C(/C=C/c3cc(Br)c(O)c(Br)c3)N(CCN)C\2=O)cc(OC)c1O.Cl [AR559],"1,2 °C",> 25,> 25,,,,,,,,,,,,,,,,,
COc1ccc(/C=C2\N=C(CC(C)C)C(=O)N(O)C2=O)cc1 [M 813],"1,65 °C",,0.46 ± 0.16,2.9,-0.6±0.9,-1.5±1,0±0.04,0.5 ± 0.2,,,,,,,,,,,,
CN1C(=O)/C(=C/c2cc[n+](C)cc2)N=C1c1ccccc1 [M 903.2],"2,3 °C",,> 25,2.8,0.4±0.1,-1±0.5,0.1±0.07,> 25,,,,,,,,,,,,
O=C1/C(=C/c2cccs2)N=C(/C=C/c2ccc(O)cc2)N1CCc1ccc(O)cc1 [MID 161],"-1,7 °C",,17.3 ± 5.7,-2.6,,,,17 ± 5,< 1,7.7 ± 2.2,8 ± 2,,,,,,,,,
COc1cc(/C=C2N=C(/C=C/c3cc(OC)c(O)c(OC)c3)N(C)C\2=O)cc(OC)c1O [N1193],14 °C,,2.3 ± 1.1,,,,,2 ± 1,> 3,,,2.4±0.6,9.1±0.6,13.1±0.2,14,9.5±0.1,3.8±0.04,0.6±0.1,,
COc1cc(/C=C2N=C(/C=C/C=C/c3ccc(N(C)C)cc3)N(C)C\2=O)cc(OC)c1O [N1195],"4,2 °C",,5.9 ± 2.6,,,,,6 ± 3,> 3,3.78 ± 0.91,3.8 ± 0.9,,,,4.2,0.9±0.3,1.8±0.1,0.1±0.1,,
COc1cc(/C=C2N=C(/C=C/c3ccnc4ccccc34)N(C)C\2=O)cc(OC)c1O [N1196],,,> 25,,,,,> 25,> 3,,,,7.9±0.4,11.3±0.3,11.7,8.7±0.2,7.2±0.4,0.5±0.1,,
COc1c(O)ccc(/C=C2N=C(/C=C/c3ccnc4ccccc34)N(C)C\2=O)c1OC [N1197],"11,3 °C",,1.66 ± 0.79,,,,,1.7 ± 0.8,> 3,,,,8.5±0.3,11.4±0.2,11.3,4.6±0.2,7±0.7,-0.4±0.2,,
COc1c(O)ccc(/C=C2N=C(/C=C/c3cc(Cl)nc(Cl)c3)N(C)C\2=O)c1OC [N1198],"6,5 °C",,2.8 ± 1.1,,,,,3 ± 1,> 3,1.78 ± 0.38,1.8 ± 0.4,,,,6.5,0.9±0.2,0.1±0.1,0±0.1,micromolar range,
CCNc1ccc(/C=C2\N=C(C)N(C)C2=O)cc1 [N 683.1],"3,1 °C",,> 25,5,-0.1±0.04,1.4±0.6,0±0.04,> 25,> 3,,,,,,,,,,,
COc1ccc(OC)c(/C=C2N=C(/C=C/c3ccncc3)N(C)C\2=O)c1 [N 848.2],"3,2 °C",,6.4 ± 1.8,2.6,2.1±0.01,0.1±0.4,0.4±0.04,6 ± 2,> 3,,,,,,,,,,,
COc1ccc(O)c(/C=C2N=C(/C=C/c3ccncc3)N(C)C\2=O)c1 [N 848.3],"3,3 °C",,5.5 ± 2.2,2.9,1.1±0.2,0.7±0.3,0.1±0.09,6 ± 2,> 3,,,,,,,,,,,
COc1cc(/C=C2N=C(/C=C/c3ccncc3)N(C)C\2=O)cc(OC)c1O [N 908],,,,2.4,0.1±0.1,-0.7±0.2,0±0.04,,,,,,,,,,,,,
COc1cc(/C=C2N=C(/C=C/c3cc(Cl)nc(Cl)c3)N(C)C\2=O)cc(OC)c1O [N 960a],"5,2 °C",,> 25,5.3,1±0.7,0.5±0.01,-0.5±0.07,> 25,> 3,,,,,,,,,,,
COc1ccc(/C=C/C2=NC(=C\c3ccc(O)cc3OC)/C(=O)N2C)cc1 [N 1052],"4,5 °C",,6.6 ± 3.1,4.6,3.9±0.1,2.1±0.2,-0.1±0.04,7 ± 3,> 3,,,,,,,,,,,
COc1cc(O)ccc1/C=C1N=C(/C=C/c2ccnc3ccccc23)N(C)C\1=O [ZS 331],"3,7 °C",,1.17 ± 0.55,,2.5±0.3,0.8±0.2,-0.2±0.1,1.2 ± 0.6,> 3,,,,,,,,,,,3.3±0.2
